{"source": "patent US20130296426A1", "about": "“ANALGESIC” (NAGOYA INDUSTRIAL SCIENCE RESEARCH INSTITUTE, priority 2011, published 2013)", "assay_type_in_all_cases": "in vivo, rat", "key": {"MIA-induced OA rats [1]": {"tested_on": "MIA-induced OA rats", "assay": "von Frey test, single administration to MIA-induced OA rats", "details": "for Recovery rate of 50% reaction threshold value (%): 1 hour after administration of test drug", "experimental": "There were conducted the following experiments for testing the analgesic action of the analgesic of the present invention using the osteoarthritis (OA) rats induced by sodium monoiodoacetate (MIA) which were model animals for OA.\nA 50% reaction threshold value to the mechanical stimulus of male Wistar rats of six weeks age was measured (the measuring method will be mentioned later) and a normal control group was selected. MIA prepared by saline was administered in a single dose of 0.3 mg/50 μL into right knee joint of the rats except the normal control group while 50 μL of saline was administered into left knee joint whereupon the MIA-induced OA rats were prepared. To the normal control group, 50 μL of saline was administered into the joints of both knees.\nWith regard to the male Wistar rats of six weeks age used as experimental animals except the normal control group, their 50% reaction threshold values to the mechanical stimulus (the measuring method will be mentioned later) and body weights were measured after 24 days from the administration of MIA mentioned in (1) and then 4 groups each comprising six rats [a normal control group, an onset control group, a test drug-administered group and a loxoprofen sodium hydrate (LOX)-administered group (a positive control)] were organized.\nA test drug solution (0.1 mg/mL) using the compound 4 as a test drug and a LOX suspension (1 mg/mL) were prepared using a phosphate buffered saline (PBS) containing 0.1 vol % of dimethyl sulfoxide (DMSO) and a 0.5 w/v % aqueous solution of carboxymethyl cellulose, respectively.\nImmediately after the grouping (after 24 days from the administration of MIA), a test drug solution was intraperitoneally administered in a single dose of 0.5 mg/kg to a test drug-administered group while, a LOX suspension was orally administered in a single dose of 5 mg/kg to a LOX-administered group. Meanwhile, to the normal control group and the onset control group, PBS containing 0.1 vol % of DMSO was intraperitoneally administered in a single dose.\nThe four groups of rats of the above (2) were placed in a transparent acrylic cage with a wire-meshed floor and habituated for about three minutes and the 50% reaction threshold values to the mechanical stimulus were measured after 1, 3, 5 and 24 hours from the administration of a test drug.\nThe measurement was conducted using von Frey filaments (manufactured by North Coast Medical Inc.) in accordance with the methods of Chaplan, et al. (Journal of Neuroscience Methods, vol. 53, no. 1, pages 55 to 63, 1994) and Dixon, et al. (Annual Review of Pharmacology and Toxicology; vol. 20, pages 441 to 462, 1980). […] The case where the rat escaped at the instance of removing the filament was also called positive. When the positive reaction was noted, stimulus was conducted similarly using a filament of one rank weaker while, when no reaction was noted, stimulus was conducted similarly using a filament of one rank stronger and the point when the reaction changed from negative to positive or from positive to negative was called the first two reactions. After that, stimulus was conducted for continuous four times by the same up-down method. A 50% reaction threshold value to the mechanical stimulus was measured using the reaction to the six stimuli in total and then (mean value)±(standard error) for each group was calculated. Incidentally, when stimulus reached by that of 15.0 g without positive reaction or, when positive reaction continued to 0.4 g, then 15.0 g or 0.25 g was adopted as each threshold value, respectively.\nThe test for significant difference was performed using the test in two groups (Student's t-test or Welch test) or Wilcoxon test between the normal control group and the onset control group, between the onset control group and the test drug-administered group, between the onset control group and the LOX-administered group and between the test drug-administered group and the LOX-administered group. […]"}, "MIA-induced OA rats [2]": {"tested_on": "MIA-induced OA rats", "assay": "von Frey test, repeated administration to MIA-induced OA rats", "details": "for Recovery rate of 50% reaction threshold value (%): repeated administration, 1 hour after administration of test drug", "experimental": "Selection of the normal control group and preparation of MIA-induced OA rats were conducted in the same manner as in the above 1.(1).\nWith regard to the male Wistar rats of six weeks age used as experimental animals except the normal control group, their 50% reaction threshold values to the mechanical stimulus, weight bearing rate to a MIA-non-administered hind paw (the measuring method will be mentioned later) and body weights were measured after 27 days from the administration of MIA mentioned in (1) and then four groups each comprising six rats [a normal control group, an onset control group, a test drug-administered group and a LOX-administered group (a positive control)] were organized.\nA test drug solution and an LOX suspension were prepared in the same manner as in the above 1.(2).\n(§1) During eight days from immediately after the grouping (after 27 to 34 days from the administration of MIA), a test drug solution was intraperitoneally administered in repeated dose of 0.5 mg/kg to a test drug-administered group while, a LOX suspension was orally administered in repeated dose of 5 mg/kg to a LOX-administered group. Meanwhile, to the normal control group and the onset control group, PBS containing 0.1 vol % of DMSO was intraperitoneally administered repeatedly.\nIn the same manner as in the above 1.(4), the 50% reaction threshold values to the mechanical stimulus were measured after 1, 3, 5 and 24 hour(s) from the final administration of a test drug. Mean value±standard error for each group was calculated and the test for significant difference was done in the same manner as in the above 1.(4).\nThe analgesic of the present invention was repeatedly administered to the MIA-induced OA rat and a von Frey test was conducted in the same manner as in the above test 1.(4) whereupon each 50% reaction threshold value was measured. With regard to the 50% reaction threshold value after 1 hour from the administration of a test drug, a recovery rate (%) of the 50% reaction threshold value was calculated in the same manner as in the above test 1.(4)."}, "[3]": {"tested_on": "experimental autoimmune neuritis (EAN) rats", "assay": "von Frey test in Guillain-Bareé syndrome model (EAN) rats", "experimental": "The following experiment for checking the analgesic action of the analgesic of the present invention was conducted using the experimental autoimmune neuritis (EAN) rats which were the model animals for Guillain-Bareé syndrome having an on set of chronic pain.\nThe 50% reaction threshold value to mechanical stimulus of female Lewis rats of seven weeks age were measured to select a normal control group. Left hind paw of each of the anesthetized rats except the normal control group was immunized by subcutaneous administration of 0.1 mL of an emulsion prepared by equivalent mixing of a 2 mg/mL solution of a peptide derived from bovine P2 protein (SP-26) with an adjuvant complete Freund H37Ra whereupon EAN rats were prepared.\nThe grouping was conducted and a test drug was administered in the same manner as in (2) and (3) of the Pharmacological Test II.\nA von Frey test was carried out in the same manner as in 1.(4) of the above Pharmacological Test I to measure the 50% reaction threshold value to the mechanical stimulus to each group over time. The test for significant difference was conducted and recovery rate (%) of the 50% reaction threshold value was calculated in the same manner as in (4) of the above Pharmacological Test II."}, "MIA-induced OA rats [4]": {"tested_on": "MIA-induced OA rats", "assay": "Weight bearing rate to MIA-non-administered hind paw (dual channel weight averager), repeated administration", "experimental": "as §1\nOne hind paw of a rat where OA was induced by administration of MIA develops a pain symptom. Therefore, a body weight bearing to a painless hind paw to which no MIA was administered increases in a rat for avoiding the application of body weight to the hind paw after administration of MIA. […] Using this weight bearing rate to the MIA-non-administered hind paw as an index, the analgesic action of the analgesic of the present invention was measured.\nThe weight bearing rate to the MIA-non-administered hind paw was determined by the following formula after measuring the weight distribution to right and left hind paws of a rat using a device for evaluating the analgesic effect for small animals (Incapacitance Tester manufactured by Linton Instrumentation). Mean value±standard error for each group was also calculated and the test for significant difference was carried out in the same manner as in the above 1.(4). […]"}}, "data": [{"smiles": "CCCCCCC/C=C/C(=O)OC", "note": "[Compound 3, Trans-2-decenoic acid methyl ester]", "values": [{"measurement": "Recovery rate of 50% reaction threshold value (%)", "setting": "MIA-induced OA rats [1]; single dose", "result": 32.4, "unit": "%"}, {"measurement": "Recovery rate of 50% reaction threshold value (%)", "setting": "MIA-induced OA rats [2]", "result": 23.3, "unit": "%"}]}, {"smiles": "CCCCCCC/C=C/C(=O)OCC", "note": "[Compound 4, Trans-2-decenoic acid ethyl ester]", "values": [{"measurement": "Recovery rate of 50% reaction threshold value (%)", "setting": "[3]; 0.25 mg/kg/day intraperitoneal once daily, After 8 days", "result": "100.0^[…] %"}, {"measurement": "Recovery rate of 50% reaction threshold value (%)", "setting": "[3]; 0.25 mg/kg/day intraperitoneal once daily, After 11 days", "result": "40.1^[…] %"}, {"measurement": "Recovery rate of 50% reaction threshold value (%)", "setting": "[3]; 0.25 mg/kg/day intraperitoneal once daily, After 25 days", "result": "21.7^[…] %"}, {"measurement": "Recovery rate of 50% reaction threshold value (%)", "setting": "[3]; 0.25 mg/kg/day intraperitoneal once daily, After 28 days", "result": "24.2^[…] %"}, {"measurement": "Recovery rate of 50% reaction threshold value (%)", "setting": "[3]; 0.50 mg/kg/day intraperitoneal once daily, After 8 days", "result": "98.5^[…] %"}, {"measurement": "Recovery rate of 50% reaction threshold value (%)", "setting": "[3]; 0.50 mg/kg/day intraperitoneal once daily, After 11 days", "result": 35.5, "unit": "%"}, {"measurement": "Recovery rate of 50% reaction threshold value (%)", "setting": "[3]; 0.50 mg/kg/day intraperitoneal once daily, After 25 days", "result": "38.3^[…] %"}, {"measurement": "Recovery rate of 50% reaction threshold value (%)", "setting": "[3]; 0.50 mg/kg/day intraperitoneal once daily, After 28 days", "result": "38.3^[…] %"}, {"measurement": "Recovery rate of 50% reaction threshold value (%)", "setting": "MIA-induced OA rats [1]; single dose", "result": 61.6, "unit": "%"}, {"measurement": "50% reaction threshold value to the mechanical stimulus", "setting": "MIA-induced OA rats [1]; single intraperitoneal dose 0.5 mg/kg, 24 days after MIA, vs onset control group, FIG. 1", "result": "significantly high"}, {"measurement": "weight bearing rate to the MIA-non-administered hind paw", "setting": "MIA-induced OA rats [4]; repeated intraperitoneal 0.5 mg/kg for eight days, vs onset control group, FIG. 3", "result": "significantly decreased"}, {"measurement": "50% reaction threshold value to the mechanical stimulus", "setting": "MIA-induced OA rats [2]; repeated intraperitoneal 0.5 mg/kg for eight days, after 1 and 3 hour(s) from the final administration, vs onset control group, FIG. 2", "result": "significantly high"}]}, {"smiles": "CCCCCCC/C=C/C(=O)OCCC", "note": "[Compound 5, Trans-2-decenoic acid propyl ester]", "values": [{"measurement": "Recovery rate of 50% reaction threshold value (%)", "setting": "MIA-induced OA rats [1]; single dose", "result": 8.1, "unit": "%"}]}, {"smiles": "CCCCCCC/C=C/COC(=O)/C=C/CCCCCCC", "note": "[Compound 16, Trans-2-decenoic acid trans-2-decenyl ester]", "values": [{"measurement": "Recovery rate of 50% reaction threshold value (%)", "setting": "MIA-induced OA rats [1]; single dose", "result": 39.6, "unit": "%"}, {"measurement": "weight bearing rate to the MIA-non-administered hind paw", "setting": "MIA-induced OA rats [4]; repeated intraperitoneal 0.5 mg/kg/day, FIG. 4", "result": "significantly lowered"}, {"measurement": "Recovery rate of 50% reaction threshold value (%)", "setting": "MIA-induced OA rats [2]", "result": 61.4, "unit": "%"}]}, {"smiles": "C=CCCCCCCCCOC(=O)/C=C/CCCCCCC", "note": "[Compound 17, Trans-2-decenoic acid trans-9-decenyl ester]", "values": [{"measurement": "Recovery rate of 50% reaction threshold value (%)", "setting": "MIA-induced OA rats [1]; single dose", "result": 19.5, "unit": "%"}]}, {"smiles": "CCCCCCC/C=C/C(=O)OC1CCCCC1", "note": "[Compound 18, Trans-2-decenoic acid cyclohexyl ester]", "values": [{"measurement": "Recovery rate of 50% reaction threshold value (%)", "setting": "MIA-induced OA rats [1]; single dose", "result": 20.8, "unit": "%"}, {"measurement": "Recovery rate of 50% reaction threshold value (%)", "setting": "MIA-induced OA rats [2]", "result": 32.6, "unit": "%"}]}, {"smiles": "CCCCCC/C=C/CC(=O)OCC", "note": "[Compound 20, Trans-3-decenoic acid ethyl ester]", "values": [{"measurement": "Recovery rate of 50% reaction threshold value (%)", "setting": "MIA-induced OA rats [1]; single dose", "result": 17.7, "unit": "%"}, {"measurement": "Recovery rate of 50% reaction threshold value (%)", "setting": "MIA-induced OA rats [2]", "result": 66.3, "unit": "%"}]}, {"smiles": "CC(C(=O)O)c1ccc(CC2CCCC2=O)cc1", "note": "(stereo not shown) [LOX, loxoprofen sodium hydrate, reference compound]", "values": [{"measurement": "suppressive action to hyperalgesia (50% reaction threshold value)", "setting": "MIA-induced OA rats [1]; single oral dose 5 mg/kg, 24 days after MIA, vs onset control group, FIG. 1", "result": "no significant suppressive action to hyperalgesia"}]}, {"smiles": "CCCCCCC/C=C/C(=O)O", "note": "[trans-2-decenoic acid, reference compound]", "values": [{"measurement": "suppressive effect for hyperalgesia (50% reaction threshold value before vs after 1 hour from administration)", "setting": "MIA-induced OA rats [1]; single dose, 1 hour after administration", "result": "no suppressive effect for hyperalgesia"}]}]}
